In patent publication US12435060B2, “Acylamino bridged heterocyclic compound, and composition and application thereof” (BEIJING SCITECH-MQ PHARMACEUTICALS LIMITED, priority 2019, dated 2025):

Test system: HT29 cells
Assay: Inhibition of cell necrosis (CCK8 method), induced programmed necrosis of HT29 cells
Type: cell-based
Settings: Homo sapiens, HT-29; rescue from necrosis induced by TNF-α 20 ng/mL, AT-406 1 μM, Z-VAD-FMK 20 μM; 16-20 hours; CCK-8, OD 450 nm
In short: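 Rescue from programmed necrosis was scored by CCK-8 absorbance at 450 nm after 16-20 h of TNF-α (20 ng/mL), AT-406 (1 μM) and Z-VAD-FMK (20 μM) at 37 °C, 5% CO2. HT29 cells had received compound 30 min earlier across nine 4-fold dilutions (top 25000 nM final). IC50 came from % inhibition relative to uninduced and induced-only wells.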

Compound | IC50
O=C(Nc1cc(-c2cc(OCC3CCOCC3)ccc2C(F)(F)F)ncn1)c1nnc(CC2CCCC2)[nH]1 [Example 456, 5-(cyclopentylmethyl)-N-(6-(5-((tetrahydro-2H-pyran-4-yl)methoxy)-2-(trifluoromethyl)phenyl)pyrimidin-4-yl)-4H-1,2,4-triazole-3-carboxamide] | ≤ 100 nM
O=C(Nc1cc(-c2cc(OCC3CCOCC3)ccc2C(F)(F)F)ncn1)c1nnc(CC2CCCCC2)[nH]1 [Example 457, 5-(cyclohexylmethyl)-N-(6-(5-((tetrahydro-2H-pyran-4-yl)methoxy)-2-(trifluoromethyl)phenyl)pyrimidin-4-yl)-4H-1,2,4-triazole-3-carboxamide] | ≤ 100 nM
O=C(Nc1cc(-c2cc(OCCC3CCOCC3)ccc2C(F)(F)F)ncn1)c1nnc(Cc2ccccc2)[nH]1 [Example 458, 5-benzyl-N-(6-(5-(2-(tetrahydro-2H-pyran-4-yl)ethoxy)-2-(trifluoromethyl)phenyl)pyrimidin-4-yl)-4H-1,2,4-triazole-3-carboxamide] | ≤ 100 nM
O=C(Nc1cc(-c2cc(OCCC3CCOCC3)ccc2C(F)(F)F)ncn1)c1nnc(Cc2ccccc2F)[nH]1 [Example 459, 5-(2-fluorobenzyl)-N-(6-(5-(2-(tetrahydro-2H-pyran-4-yl)ethoxy)-2-(trifluoromethyl)phenyl)pyrimidin-4-yl)-4H-1,2,4-triazole-3-carboxamide] | ≤ 100 nM
O=C(Nc1cc(-c2cc(OCCC3CCOCC3)ccc2C(F)(F)F)ncn1)c1nnc(CC2CCCC2)[nH]1 [Example 460, 5-(cyclopentylmethyl)-N-(6-(5-(2-(tetrahydro-2H-pyran-4-yl)ethoxy)-2-(trifluoromethyl)phenyl)pyrimidin-4-yl)-4H-1,2,4-triazole-3-carboxamide] | ≤ 100 nM
O=C(Nc1cc(-c2cc(OCCC3CCOCC3)ccc2C(F)(F)F)ncn1)c1nnc(CC2CCCCC2)[nH]1 [Example 461, 5-(cyclohexylmethyl)-N-(6-(5-(2-(tetrahydro-2H-pyran-4-yl)ethoxy)-2-(trifluoromethyl)phenyl)pyrimidin-4-yl)-4H-1,2,4-triazole-3-carboxamide] | ≤ 100 nM
CC(C)(O)CCCOc1ccc(Cl)c(-c2cc(NC(=O)c3nnc(Cc4ccccc4)[nH]3)ncn2)c1 [Example 462, 5-benzyl-N-(6-(2-chloro-5-((4-hydroxy-4-methylpentyl)oxy)phenyl)pyrimidin-4-yl)-4H-1,2,4-triazole-3-carboxamide] | ≤ 100 nM
CC(C)(O)CCCOc1ccc(Cl)c(-c2cc(NC(=O)c3nnc(Cc4ccccc4F)[nH]3)ncn2)c1 [Example 463, 5-(2-fluorobenzyl)-N-(6-(2-chloro-5-((4-hydroxy-4-methylpentyl)oxy)phenyl)pyrimidin-4-yl)-4H-1,2,4-triazole-3-carboxamide] | ≤ 100 nM
CC(C)(O)CCCOc1ccc(Cl)c(-c2cc(NC(=O)c3nnc(CC4CCCC4)[nH]3)ncn2)c1 [Example 464, 5-(cyclopentylmethyl)-N-(6-(2-chloro-5-((4-hydroxy-4-methylpentyl)oxy)phenyl)pyrimidin-4-yl)-4H-1,2,4-triazole-3-carboxamide] | ≤ 100 nM
CC(C)(O)CCCOc1ccc(Cl)c(-c2cc(NC(=O)c3nnc(CC4CCCCC4)[nH]3)ncn2)c1 [Example 465, 5-(cyclohexylmethyl)-N-(6-(2-chloro-5-((4-hydroxy-4-methylpentyl)oxy)phenyl)pyrimidin-4-yl)-4H-1,2,4-triazole-3-carboxamide] | ≤ 100 nM
O=C(Nc1cc(-c2cc(OCC3CCOCC3)ccc2Cl)ncn1)c1nnc(Cc2ccccc2)[nH]1 [Example 466, 5-benzyl-N-(6-(2-chloro-5-((tetrahydro-2H-pyran-4-yl)methoxy)phenyl)pyrimidin-4-yl)-4H-1,2,4-triazole-3-carboxamide] | ≤ 100 nM
O=C(Nc1cc(-c2cc(OCC3CCOCC3)ccc2Cl)ncn1)c1nnc(Cc2ccccc2F)[nH]1 [Example 467, 5-(2-fluorobenzyl)-N-(6-(2-chloro-5-((tetrahydro-2H-pyran-4-yl)methoxy)phenyl)pyrimidin-4-yl)-4H-1,2,4-triazole-3-carboxamide] | ≤ 100 nM
O=C(Nc1cc(-c2cc(OCC3CCOCC3)ccc2Cl)ncn1)c1nnc(CC2CCCC2)[nH]1 [Example 468, 5-(cyclopentylmethyl)-N-(6-(2-chloro-5-((tetrahydro-2H-pyran-4-yl)methoxy)phenyl)pyrimidin-4-yl)-4H-1,2,4-triazole-3-carboxamide] | ≤ 100 nM
O=C(Nc1cc(-c2cc(OCC3CCOCC3)ccc2Cl)ncn1)c1nnc(CC2CCCCC2)[nH]1 [Example 469, 5-(cyclohexylmethyl)-N-(6-(2-chloro-5-((tetrahydro-2H-pyran-4-yl)methoxy)phenyl)pyrimidin-4-yl)-4H-1,2,4-triazole-3-carboxamide] | ≤ 100 nM
O=C(Nc1cc(-c2cc(OCCC3CCOCC3)ccc2Cl)ncn1)c1nnc(Cc2ccccc2)[nH]1 [Example 470, 5-benzyl-N-(6-(2-chloro-5-(2-(tetrahydro-2H-pyran-4-yl)ethoxy)phenyl)pyrimidin-4-yl)-4H-1,2,4-triazole-3-carboxamide] | ≤ 100 nM
O=C(Nc1cc(-c2cc(OCCC3CCOCC3)ccc2Cl)ncn1)c1nnc(Cc2ccccc2F)[nH]1 [Example 471, N-(6-(2-chloro-5-(2-(tetrahydro-2H-pyran-4-yl)ethoxy)phenyl)pyrimidin-4-yl)-5-(2-fluorobenzyl)-4H-1,2,4-triazole-3-carboxamide] | ≤ 100 nM
O=C(Nc1cc(-c2cc(OCCC3CCOCC3)ccc2Cl)ncn1)c1nnc(CC2CCCC2)[nH]1 [Example 472, N-(6-(2-chloro-5-(2-(tetrahydro-2H-pyran-4-yl)ethoxy)phenyl)pyrimidin-4-yl)-5-(cyclopentylmethyl)-4H-1,2,4-triazole-3-carboxamide] | ≤ 100 nM
O=C(Nc1cc(-c2cc(OCCC3CCOCC3)ccc2Cl)ncn1)c1nnc(CC2CCCCC2)[nH]1 [Example 473, N-(6-(2-chloro-5-(2-(tetrahydro-2H-pyran-4-yl)ethoxy)phenyl)pyrimidin-4-yl)-5-(cyclohexylmethyl)-4H-1,2,4-triazole-3-carboxamide] | ≤ 100 nM
Cc1ccc(S(=O)(=O)CCCC(C)(C)O)cc1-c1ccnc(NC(=O)c2nnc(Cc3ccccc3)[nH]2)c1 [Example 474, 5-benzyl-N-(4-(5-((4-hydroxy-4-methylpentyl)sulfonyl)-2-methylphenyl)pyridin-2-yl)-4H-1,2,4-triazole-3-carboxamide] | 100 to 1000 nM
Cc1ccc(S(=O)(=O)CCCC(C)(C)O)cc1-c1ccnc(NC(=O)c2nnc(CC3CCCC3)[nH]2)c1 [Example 475, 5-(cyclopentylmethyl)-N-(4-(5-((4-hydroxy-4-methylpentyl)sulfonyl)-2-methylphenyl)pyridin-2-yl)-4H-1,2,4-triazole-3-carboxamide] | ≤ 100 nM
CC(C)(O)CCCOc1ccc(Cl)c(-c2ccnc(NC(=O)c3nnc(C(O)c4ccccc4F)[nH]3)c2)c1 (stereo not shown) [Example 476, N-(4-(2-chloro-5-((4-hydroxy-4-methylpentyl)oxy)phenyl)pyridin-2-yl)-5-((2-fluorophenyl)(hydroxyl)methyl)-4H-1,2,4-triazole-3-carboxamide] | 100 to 1000 nM
CC(C)(O)CCCOc1ccc(Cl)c(-c2ccnc(NC(=O)c3nnc([C@H](O)c4ccccc4)[nH]3)c2)c1 [Example 477, (R)-N-(4-(2-chloro-5-((4-hydroxy-4-methylpentyl)oxy)phenyl)pyridin-2-yl)-5-(hydroxyl(phenyl)methyl)-4H-1,2,4-triazole-3-carboxamide] | 1000 to 10000 nM
